Test results from ChEMBL document CHEMBL3774309, “SAR Exploration Guided by LE and Fsp(3): Discovery of a Selective and Orally Efficacious RORγ Inhibitor” (ACS Med Chem Lett, 2016).
pEC50, pIC50: −log10 of the molar value.

Legend:
[1] = biological target: T1, Nuclear receptor ROR-gamma (Mus musculus, UniProt P51450); assay: Inhibition of mouse RORgamma ligand binding domain (Isoleucine 251 to Lysine 516) expressed in CHOK1 cells incubated for 2 days by Gal4 luciferase reporter gene assay; type: cell-based, CHO-K1
T1 sequence (P51450 whole entry): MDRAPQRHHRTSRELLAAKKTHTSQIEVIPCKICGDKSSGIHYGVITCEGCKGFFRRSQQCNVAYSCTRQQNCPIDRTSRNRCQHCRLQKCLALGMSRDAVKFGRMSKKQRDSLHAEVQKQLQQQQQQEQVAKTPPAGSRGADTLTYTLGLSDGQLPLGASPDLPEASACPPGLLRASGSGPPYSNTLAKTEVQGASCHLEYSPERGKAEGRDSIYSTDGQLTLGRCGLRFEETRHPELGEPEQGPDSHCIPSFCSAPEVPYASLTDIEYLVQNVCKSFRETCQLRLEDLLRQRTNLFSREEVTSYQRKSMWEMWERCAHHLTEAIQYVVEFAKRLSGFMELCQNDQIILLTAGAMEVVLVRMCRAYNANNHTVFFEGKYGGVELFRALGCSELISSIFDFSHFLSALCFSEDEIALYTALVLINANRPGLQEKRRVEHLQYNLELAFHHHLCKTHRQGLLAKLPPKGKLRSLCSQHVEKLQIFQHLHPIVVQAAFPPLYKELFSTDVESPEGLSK

[2] = biological target: T2, Nuclear receptor ROR-gamma (Homo sapiens, UniProt P51449)
T2 sequence (P51449 whole entry): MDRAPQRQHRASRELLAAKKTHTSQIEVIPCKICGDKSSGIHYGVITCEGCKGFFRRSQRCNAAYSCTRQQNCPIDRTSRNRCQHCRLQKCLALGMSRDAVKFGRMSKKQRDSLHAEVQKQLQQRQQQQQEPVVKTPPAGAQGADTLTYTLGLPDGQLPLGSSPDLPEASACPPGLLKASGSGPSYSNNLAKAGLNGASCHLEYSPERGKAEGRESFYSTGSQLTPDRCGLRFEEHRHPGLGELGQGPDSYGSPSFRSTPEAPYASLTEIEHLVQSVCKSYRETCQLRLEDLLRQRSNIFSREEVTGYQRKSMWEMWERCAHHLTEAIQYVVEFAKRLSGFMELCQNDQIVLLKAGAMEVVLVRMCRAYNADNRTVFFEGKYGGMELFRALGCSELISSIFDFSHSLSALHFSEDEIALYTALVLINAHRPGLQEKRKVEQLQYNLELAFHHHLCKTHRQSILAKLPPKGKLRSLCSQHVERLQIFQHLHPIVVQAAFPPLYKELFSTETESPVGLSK
Description: Inhibition of human RORgamma ligand binding domain (Serine 253 to Lysine 518 residues) expressed in CHOK1 cells incubated for 2 days by Gal4 luciferase reporter gene assay

[3] = Metabolic stability in liver S9 fraction (unknown origin) assessed as parent compound remaining incubated for 10 mins; type: ADME, subcellular; conditions: human, read-out: Stability
[4] = Metabolic stability in liver S9 fraction (unknown origin) assessed as parent compound remaining incubated for 60 mins; type: ADME, subcellular; conditions: human, read-out: Stability
[5] = biological target: Cytochrome P450 3A4 (Homo sapiens, UniProt P08684); assay: Inhibition of CYP3A4 in human liver microsomes using midazolam as substrate preincubated with substrate for 5 mins followed by NADPH addition measured after 20 mins by HPLC analysis; type: ADME
Chain of Cytochrome P450 3A4 (P08684 whole entry): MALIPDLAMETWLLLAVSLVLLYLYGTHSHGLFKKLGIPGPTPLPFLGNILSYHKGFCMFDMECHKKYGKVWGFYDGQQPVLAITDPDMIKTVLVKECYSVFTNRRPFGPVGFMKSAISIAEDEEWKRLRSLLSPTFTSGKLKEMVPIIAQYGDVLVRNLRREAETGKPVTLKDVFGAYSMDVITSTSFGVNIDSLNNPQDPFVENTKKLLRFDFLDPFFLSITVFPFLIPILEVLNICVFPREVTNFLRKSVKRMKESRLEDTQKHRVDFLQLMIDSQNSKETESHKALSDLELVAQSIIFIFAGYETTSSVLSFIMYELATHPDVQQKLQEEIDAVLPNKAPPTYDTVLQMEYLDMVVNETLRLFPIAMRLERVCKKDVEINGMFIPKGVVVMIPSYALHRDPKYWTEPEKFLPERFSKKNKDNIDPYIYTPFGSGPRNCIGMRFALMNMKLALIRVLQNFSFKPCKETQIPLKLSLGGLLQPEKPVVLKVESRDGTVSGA

[6] = biological target: Cytochrome P450 2C9 (Homo sapiens, UniProt P11712); assay: Inhibition of CYP2C9 in human liver microsomes using diclofenac as substrate preincubated with substrate for 5 mins followed by NADPH addition measured after 20 mins by HPLC analysis; type: ADME
[7] = biological target: Cytochrome P450 2D6 (Homo sapiens, UniProt P10635); assay: Inhibition of CYP2D6 in human liver microsomes using bufuralol as substrate preincubated with substrate for 5 mins followed by NADPH addition measured after 20 mins by HPLC analysis; type: ADME
Chain of Cytochrome P450 2D6 (P10635 whole entry): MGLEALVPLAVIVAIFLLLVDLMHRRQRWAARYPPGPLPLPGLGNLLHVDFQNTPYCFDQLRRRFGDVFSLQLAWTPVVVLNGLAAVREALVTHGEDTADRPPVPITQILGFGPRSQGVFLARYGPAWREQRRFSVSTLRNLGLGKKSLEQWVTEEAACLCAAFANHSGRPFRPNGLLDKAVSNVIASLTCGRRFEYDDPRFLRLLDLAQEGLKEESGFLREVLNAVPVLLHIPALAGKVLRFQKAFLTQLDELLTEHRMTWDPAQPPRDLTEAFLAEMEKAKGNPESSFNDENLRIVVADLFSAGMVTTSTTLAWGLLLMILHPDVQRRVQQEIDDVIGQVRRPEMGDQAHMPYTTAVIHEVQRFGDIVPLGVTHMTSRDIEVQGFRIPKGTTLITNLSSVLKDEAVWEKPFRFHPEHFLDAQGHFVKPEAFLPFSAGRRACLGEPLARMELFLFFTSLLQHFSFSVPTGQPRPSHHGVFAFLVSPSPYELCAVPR

[8] = biological target: Cytochrome P450 1A2 (Homo sapiens, UniProt P05177); assay: Inhibition of CYP1A2 in human liver microsomes using ethoxyresorufin as substrate preincubated with substrate for 5 mins followed by NADPH addition measured after 20 mins by HPLC analysis; type: ADME
Chain of Cytochrome P450 1A2 (P05177 whole entry): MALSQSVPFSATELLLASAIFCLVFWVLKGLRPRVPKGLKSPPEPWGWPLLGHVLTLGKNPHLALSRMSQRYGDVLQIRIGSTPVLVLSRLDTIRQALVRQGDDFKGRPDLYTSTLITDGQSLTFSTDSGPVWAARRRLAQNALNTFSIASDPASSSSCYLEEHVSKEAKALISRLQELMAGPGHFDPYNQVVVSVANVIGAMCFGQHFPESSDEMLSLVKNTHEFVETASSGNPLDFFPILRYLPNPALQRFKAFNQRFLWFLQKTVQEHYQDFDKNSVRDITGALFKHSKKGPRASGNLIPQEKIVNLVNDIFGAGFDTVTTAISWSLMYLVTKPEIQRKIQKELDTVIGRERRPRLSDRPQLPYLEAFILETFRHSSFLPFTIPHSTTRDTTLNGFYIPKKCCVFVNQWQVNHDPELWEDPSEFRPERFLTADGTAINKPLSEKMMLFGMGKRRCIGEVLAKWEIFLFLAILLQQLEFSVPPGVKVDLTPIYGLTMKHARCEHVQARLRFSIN

[9] = biological target: Cytochrome P450 2A6 (Homo sapiens, UniProt P11509); assay: Inhibition of CYP2A6 in human liver microsomes using coumarin as substrate preincubated with substrate for 5 mins followed by NADPH addition measured after 20 mins by HPLC analysis; type: ADME
[10] = biological target: Cytochrome P450 2C19 (Homo sapiens, UniProt P33261); assay: Inhibition of CYP2C19 in human liver microsomes using S-mephenytoin as substrate preincubated with substrate for 5 mins followed by NADPH addition measured after 20 mins by HPLC analysis; type: ADME
[11] = biological target: Nuclear receptor ROR-alpha (Homo sapiens, UniProt P35398); assay: Inhibition of human RORalpha
Chain of Nuclear receptor ROR-alpha (P35398 whole entry): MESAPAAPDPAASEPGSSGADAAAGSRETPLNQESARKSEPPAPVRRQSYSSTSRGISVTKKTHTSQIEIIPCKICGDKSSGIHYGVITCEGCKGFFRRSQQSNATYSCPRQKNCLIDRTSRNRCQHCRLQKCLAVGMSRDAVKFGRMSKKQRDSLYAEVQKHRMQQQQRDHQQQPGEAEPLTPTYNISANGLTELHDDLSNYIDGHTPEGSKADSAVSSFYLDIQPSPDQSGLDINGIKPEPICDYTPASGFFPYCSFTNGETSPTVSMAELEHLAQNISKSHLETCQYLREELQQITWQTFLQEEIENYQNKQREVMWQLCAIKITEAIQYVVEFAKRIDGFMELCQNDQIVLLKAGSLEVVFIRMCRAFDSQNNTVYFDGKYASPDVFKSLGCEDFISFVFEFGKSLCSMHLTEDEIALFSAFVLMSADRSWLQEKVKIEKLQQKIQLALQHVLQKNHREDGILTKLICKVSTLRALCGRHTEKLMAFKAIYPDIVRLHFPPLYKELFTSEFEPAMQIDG

[12] = biological target: Steroidogenic factor 1 (Homo sapiens, UniProt Q13285); assay: Inhibition of human SF-1 receptor
[13] = biological target: Nuclear receptor ROR-beta (Homo sapiens, UniProt Q92753); assay: Inhibition of human RORbeta
Chain of Nuclear receptor ROR-beta (Q92753 whole entry): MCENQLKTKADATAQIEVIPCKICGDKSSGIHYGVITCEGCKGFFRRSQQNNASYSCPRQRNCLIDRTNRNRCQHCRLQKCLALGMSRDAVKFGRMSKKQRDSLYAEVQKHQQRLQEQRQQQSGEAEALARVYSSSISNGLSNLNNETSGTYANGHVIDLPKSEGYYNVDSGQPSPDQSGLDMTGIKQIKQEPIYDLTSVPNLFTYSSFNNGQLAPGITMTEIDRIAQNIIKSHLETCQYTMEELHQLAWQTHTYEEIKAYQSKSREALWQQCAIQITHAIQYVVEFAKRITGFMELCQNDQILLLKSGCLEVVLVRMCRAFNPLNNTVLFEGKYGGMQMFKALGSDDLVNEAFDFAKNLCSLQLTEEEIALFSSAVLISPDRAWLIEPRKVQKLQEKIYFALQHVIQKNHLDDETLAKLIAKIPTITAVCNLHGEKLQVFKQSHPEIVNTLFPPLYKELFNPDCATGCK

[14] = biological target: Glucocorticoid receptor (Mus musculus, UniProt P06537); assay: Inhibition of mouse GR
[15] = biological target: Retinoic acid receptor RXR-alpha (Homo sapiens, UniProt P19793); assay: Inhibition of human RXRalpha
Chain of Retinoic acid receptor RXR-alpha (P19793 whole entry): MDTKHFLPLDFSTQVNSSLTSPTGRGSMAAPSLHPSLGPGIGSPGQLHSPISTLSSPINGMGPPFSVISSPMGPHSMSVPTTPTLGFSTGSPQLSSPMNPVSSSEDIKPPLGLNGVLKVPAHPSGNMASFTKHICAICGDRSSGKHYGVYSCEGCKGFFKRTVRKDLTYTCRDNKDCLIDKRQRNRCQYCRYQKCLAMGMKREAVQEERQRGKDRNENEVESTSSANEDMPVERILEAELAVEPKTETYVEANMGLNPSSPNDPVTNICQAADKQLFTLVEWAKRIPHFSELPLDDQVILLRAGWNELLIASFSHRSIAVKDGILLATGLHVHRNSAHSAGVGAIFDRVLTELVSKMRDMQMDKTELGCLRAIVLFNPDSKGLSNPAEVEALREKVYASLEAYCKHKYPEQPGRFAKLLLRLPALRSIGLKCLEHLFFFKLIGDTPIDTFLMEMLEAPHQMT

[16] = biological target: Vitamin D3 receptor (Homo sapiens, UniProt P11473); assay: Inhibition of human VDR
[17] = biological target: Bile acid receptor (Homo sapiens, UniProt Q96RI1); assay: Inhibition of human FXR
[18] = biological target: Oxysterols receptor LXR-alpha (Mus musculus, UniProt Q9Z0Y9); assay: Inhibition of mouse LXRalpha
[19] = biological target: Peroxisome proliferator-activated receptor alpha (Homo sapiens, UniProt Q07869); assay: Inhibition of human PPARalpha
Chain of Peroxisome proliferator-activated receptor alpha (Q07869 whole entry): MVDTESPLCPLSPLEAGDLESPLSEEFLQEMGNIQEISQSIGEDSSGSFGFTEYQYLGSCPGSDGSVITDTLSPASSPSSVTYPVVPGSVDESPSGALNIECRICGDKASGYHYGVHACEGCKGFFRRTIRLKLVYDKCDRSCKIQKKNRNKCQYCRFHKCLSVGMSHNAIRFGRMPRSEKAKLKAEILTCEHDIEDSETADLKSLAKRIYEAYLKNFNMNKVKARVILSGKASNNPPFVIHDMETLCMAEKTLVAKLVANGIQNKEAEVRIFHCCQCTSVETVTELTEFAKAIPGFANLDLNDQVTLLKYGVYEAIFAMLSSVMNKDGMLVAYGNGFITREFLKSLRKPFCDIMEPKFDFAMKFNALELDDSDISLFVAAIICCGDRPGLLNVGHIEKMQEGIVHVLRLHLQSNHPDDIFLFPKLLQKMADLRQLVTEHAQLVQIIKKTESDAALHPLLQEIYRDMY

[20] = biological target: Peroxisome proliferator-activated receptor gamma (Homo sapiens, UniProt P37231); assay: Inhibition of human PPARgamma
[21] = biological target: Peroxisome proliferator-activated receptor delta (Homo sapiens, UniProt Q03181); assay: Inhibition of human PPARdelta
Chain of Peroxisome proliferator-activated receptor delta (Q03181 whole entry): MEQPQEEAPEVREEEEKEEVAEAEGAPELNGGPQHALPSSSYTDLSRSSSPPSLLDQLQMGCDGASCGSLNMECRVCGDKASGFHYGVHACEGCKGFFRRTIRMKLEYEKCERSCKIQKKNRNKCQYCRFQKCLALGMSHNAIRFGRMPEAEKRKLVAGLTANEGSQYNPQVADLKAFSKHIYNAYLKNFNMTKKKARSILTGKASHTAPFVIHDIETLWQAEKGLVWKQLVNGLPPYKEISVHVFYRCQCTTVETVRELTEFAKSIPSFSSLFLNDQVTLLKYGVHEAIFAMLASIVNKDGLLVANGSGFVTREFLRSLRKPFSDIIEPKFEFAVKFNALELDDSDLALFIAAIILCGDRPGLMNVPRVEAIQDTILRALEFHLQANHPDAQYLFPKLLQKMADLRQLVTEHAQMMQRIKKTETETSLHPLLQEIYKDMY

[22] = biological target: Progesterone receptor (Homo sapiens, UniProt P06401); assay: Inhibition of human PR
Chain of Progesterone receptor (P06401 whole entry): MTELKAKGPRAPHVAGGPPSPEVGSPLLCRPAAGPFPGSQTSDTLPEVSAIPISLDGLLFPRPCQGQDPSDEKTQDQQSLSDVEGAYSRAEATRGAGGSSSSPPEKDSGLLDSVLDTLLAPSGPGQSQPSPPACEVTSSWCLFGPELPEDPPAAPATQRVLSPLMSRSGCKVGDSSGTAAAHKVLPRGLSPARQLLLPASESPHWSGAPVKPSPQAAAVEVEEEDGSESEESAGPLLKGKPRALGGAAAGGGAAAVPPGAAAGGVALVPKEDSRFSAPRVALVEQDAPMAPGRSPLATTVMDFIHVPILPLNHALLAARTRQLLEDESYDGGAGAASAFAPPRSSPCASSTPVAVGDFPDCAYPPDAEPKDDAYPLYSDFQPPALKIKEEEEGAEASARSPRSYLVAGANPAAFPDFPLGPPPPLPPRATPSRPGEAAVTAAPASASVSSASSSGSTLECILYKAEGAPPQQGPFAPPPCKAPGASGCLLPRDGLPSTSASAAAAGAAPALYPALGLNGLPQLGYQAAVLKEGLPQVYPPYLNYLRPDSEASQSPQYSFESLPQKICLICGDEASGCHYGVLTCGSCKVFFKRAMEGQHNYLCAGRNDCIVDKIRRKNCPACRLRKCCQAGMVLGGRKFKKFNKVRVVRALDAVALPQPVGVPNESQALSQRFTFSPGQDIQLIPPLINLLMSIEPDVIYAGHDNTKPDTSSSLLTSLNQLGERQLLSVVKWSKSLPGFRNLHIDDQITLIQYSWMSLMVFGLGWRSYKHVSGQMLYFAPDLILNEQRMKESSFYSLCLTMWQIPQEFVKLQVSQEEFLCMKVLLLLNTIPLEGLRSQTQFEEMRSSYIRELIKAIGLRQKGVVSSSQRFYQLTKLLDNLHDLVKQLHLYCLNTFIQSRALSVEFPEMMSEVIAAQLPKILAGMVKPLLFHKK

[23] = biological target: Retinoic acid receptor alpha (Homo sapiens, UniProt P10276); assay: Inhibition of human RARalpha
[24] = biological target: Retinoic acid receptor beta (Homo sapiens, UniProt P10826); assay: Inhibition of human RARbeta
[25] = system: Mus musculus; assay: Inhibition of MOG/PTX/CD3 antibody-induced IL-17 production in po dosed C57BL/6 mouse plasma adminstered 3 to 8 hrs before CD3 antibody injection by ELISA; type: functional, organism-based
[26] = Metabolic stability in human liver microsomes assessed as parent compound remaining incubated for 10 mins; type: ADME; conditions: read-out: Stability

Structure (SMILES): CCn1c(CCC(=O)Nc2cccc3ccccc23)nnc1CC1CCCCC1
- pEC50 [1]: 5.59
- pEC50 [2]: 4.85

Structure (SMILES): CCn1c(CCC(=O)Nc2cccc3ccccc23)nnc1CCC(C)(C)C
- pEC50 [1]: 6.08
- pEC50 [2]: 5.17

Structure (SMILES): Cc1ccc(NC(=O)CCc2nnc(CCCC(C)(C)C)n2C2CC2)c(C)c1
- pEC50 [1]: 5.89
- remaining at 10 min [3]: 71%
- remaining at 1 h [4]: 51%
- pEC50 [2]: 5.55

Structure (SMILES): CCn1c(CCC(=O)Nc2cccc3ccccc23)nnc1CCC(C)C
- pEC50 [1]: 5.85
- pEC50 [2]: 4.89

Structure (SMILES): Cc1ccc(NC(=O)CCc2nnc(CCC3CCCCC3)n2C2CC2(F)F)c(C)c1 (stereo not given)
- pEC50 [1]: 6.30
- remaining at 10 min [3]: 75%
- remaining at 1 h [4]: 59%
- pEC50 [2]: 6.04

Structure (SMILES): CCn1c(CCC(=O)Nc2cccc3ccccc23)nnc1CCC1CCCCC1
- pEC50 [1]: 6.52
- pEC50 [2]: 6.09

Structure (SMILES): CCn1c(CC(C)C(=O)Nc2cccc3ccccc23)nnc1C1Cc2ccccc2C1 (racemic)
- pEC50 [1]: 6.17
- pEC50 [2]: 5.89

Structure (SMILES): CCn1c(CCC(=O)Nc2cccc3ccccc23)nnc1C1Cc2ccccc2C1
- pEC50 [1]: 6.40
- pEC50 [2]: 6.00

Structure (SMILES): Cc1ccc(NC(=O)CCc2nnc(-c3ccc(CC(C)C)cc3)n2C2CC2)c(C)c1
- pEC50 [1]: 6.92
- remaining at 10 min [3]: 84%
- remaining at 1 h [4]: 55%
- pEC50 [2]: 5.74

Structure (SMILES): Cc1ccc(NC(=O)CCc2nnc(CCC3CCCCC3)n2C2CC2)c(C)c1
- pEC50 [1]: 6.35
- remaining at 10 min [3]: 55%
- remaining at 1 h [4]: 23%
- pEC50 [2]: 6.01

Structure (SMILES): Cc1ccc(NC(=O)[C@H]2C[C@@H](O)C[C@@H]2c2nnc([C@H]3C[C@@H](CC(C)C)C3)n2C2CC2)c(C)c1
- pEC50 [1]: 7.42
- remaining at 10 min [3]: 87%
- remaining at 1 h [4]: 76%
- pIC50 [5]: 5.52
- pEC50 [2]: 7.01

Structure (SMILES): CCn1c(OCC(=O)Nc2cccc3ccccc23)nnc1C1Cc2ccccc2C1
- pEC50 [1]: < 4.70
- pEC50 [2]: < 4.70

Structure (SMILES): CCn1c(CCC(=O)Nc2cccc(Cl)c2C)nnc1CCC1CCCCC1
- pEC50 [1]: 6.19
- pEC50 [2]: 6.02

Structure (SMILES): Cc1ccc(NC(=O)CCc2nnc([C@H]3C[C@H](CC(C)C)C3)n2C2CC2)c(C)c1
- pEC50 [1]: 7.28
- remaining at 10 min [3]: 68%
- remaining at 1 h [4]: 31%
- pEC50 [2]: 6.40

Structure (SMILES): CCn1c(C(C)CC(=O)Nc2cccc3ccccc23)nnc1C1Cc2ccccc2C1 (racemic)
- pEC50 [1]: 5.96
- pEC50 [2]: 5.77

Structure (SMILES): CCC(C)CCc1nnc(CCC(=O)Nc2ccc(C)cc2C)n1C1CC1 (racemic)
- pEC50 [1]: 5.85
- remaining at 10 min [3]: 63%
- remaining at 1 h [4]: 27%
- pEC50 [2]: 5.41

Structure (SMILES): Cc1ccc(NC(=O)CCc2nnc(-c3cc(CC(C)C)on3)n2C2CC2)c(C)c1
- pEC50 [1]: 7.27
- remaining at 10 min [3]: 83%
- remaining at 1 h [4]: 31%
- pEC50 [2]: 6.35

Structure (SMILES): CC(=O)N1C[C@H](C(=O)Nc2ccc(C)cc2C)[C@@H](c2nnc([C@H]3C[C@@H](CC(C)C)C3)n2C2CC2)C1
- remaining at 10 min [3]: 86%
- remaining at 1 h [4]: 61%
- pIC50 [5]: < 4.30
- inhibition (INH) ([5]; human, microsomes, 20 min, TDE = time-dependent effect): tde
- pIC50 [6]: < 4.30
- pIC50 [7]: < 4.30
- pIC50 [8]: < 4.30
- pIC50 [9]: < 4.30
- pIC50 [10]: < 4.30
- pEC50 [11]: < 4.70
- pEC50 [12]: < 4.70
- pEC50 [13]: < 4.70
- pEC50 [14]: < 4.70
- pEC50 [15]: < 4.70
- pEC50 [16]: < 4.70
- pEC50 [17]: < 4.70
- pEC50 [18]: < 4.70
- pEC50 [19]: < 4.70
- pEC50 [20]: < 4.70
- pEC50 [21]: < 4.70
- pEC50 [22]: < 4.70
- pEC50 [23]: < 4.70
- pEC50 [24]: < 4.70
- inhibition [25]: Dose-dependent effect

Structure (SMILES): CCn1c(CCC(=O)Nc2cccc3ccccc23)nnc1C1CCCCC1
- pEC50 [1]: 5.35
- pEC50 [2]: < 4.70

Structure (SMILES): CCn1c(C(O)CC(=O)Nc2cccc3ccccc23)nnc1C1Cc2ccccc2C1 (racemic)
- pEC50 [1]: < 4.70
- pEC50 [2]: < 4.70

Structure (SMILES): CCn1c(CCC(=O)Nc2cccc3ccccc23)nnc1CCc1ccccc1
- pEC50 [1]: 6.20
- pEC50 [2]: 5.60

Structure (SMILES): CCn1c(CCC(=O)Nc2cc(C)cc(C)c2)nnc1CCC1CCCCC1
- pEC50 [1]: 5.51
- pEC50 [2]: 5.54

Structure (SMILES): Cc1ccc(NC(=O)CCc2nnc(CCCC(C)C)n2C2CC2)c(C)c1
- pEC50 [1]: 6.21
- remaining at 10 min [3]: 67%
- remaining at 1 h [4]: 27%
- pEC50 [2]: 5.77

Structure (SMILES): Cc1ccc(NC(=O)CCc2nnc([C@H]3C[C@@H](CC(C)C)C3)n2C2CC2)c(C)c1
- pEC50 [1]: 7.46
- remaining at 10 min [3]: 70%
- remaining at 1 h [4]: 39%
- pIC50 [5]: 5.30
- pEC50 [2]: 6.85

Structure (SMILES): Cc1ccc(NC(=O)[C@H]2CN(C)CC[C@@H]2c2nnc([C@H]3C[C@@H](CC(C)C)C3)n2C2CC2)c(C)c1 (racemic)
- pEC50 [1]: 6.54
- remaining at 10 min [3]: 53%
- remaining at 1 h [4]: 21%
- pEC50 [2]: 6.64

Structure (SMILES): Cc1ccc(NC(=O)CCc2nnc(CCC3CCCCC3)n2C2CCC2)c(C)c1
- pEC50 [1]: 5.74
- remaining at 10 min [3]: 49%
- remaining at 1 h [4]: 27%
- pEC50 [2]: 5.02

Structure (SMILES): CCn1c(CCC(=O)Nc2ccc(C)cc2C)nnc1CCC1CCCCC1
- pEC50 [1]: 6.22
- remaining at 10 min [3]: 36%
- remaining at 1 h [4]: 0%
- remaining at 10 min [26]: 36%
- pEC50 [2]: 6.05
